Experimental data as given in ChEMBL document CHEMBL4422610, “HDAC as onco target: Reviewing the synthetic approaches with SAR study of their inhibitors” (Eur J Med Chem, 2018).
Each block holds one compound with its values, some of them ahead of it.

What was measured:
Histone deacetylase 1 [1] = target: T1, Histone deacetylase 1 (Homo sapiens, UniProt Q13547); test: Inhibition of HDAC1 (unknown origin) using Ac-peptide as substrate preincubated for 15 mins followed by substrate addition and measured after 60 mins by fluorescence assay
T1 sequence (Q13547 whole entry): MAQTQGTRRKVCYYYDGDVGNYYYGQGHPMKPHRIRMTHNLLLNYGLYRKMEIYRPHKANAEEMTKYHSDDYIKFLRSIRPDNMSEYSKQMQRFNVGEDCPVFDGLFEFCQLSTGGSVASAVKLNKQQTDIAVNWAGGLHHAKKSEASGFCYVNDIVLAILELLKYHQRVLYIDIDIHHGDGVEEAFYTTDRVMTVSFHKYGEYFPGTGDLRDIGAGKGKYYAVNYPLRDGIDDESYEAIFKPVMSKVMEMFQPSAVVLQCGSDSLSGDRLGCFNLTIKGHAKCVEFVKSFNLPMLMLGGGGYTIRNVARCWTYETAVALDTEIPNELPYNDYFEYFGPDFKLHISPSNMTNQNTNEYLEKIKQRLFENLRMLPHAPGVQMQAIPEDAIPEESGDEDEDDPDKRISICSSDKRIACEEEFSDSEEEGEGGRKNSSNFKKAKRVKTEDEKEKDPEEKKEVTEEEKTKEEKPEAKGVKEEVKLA

Zea mays = test: Inhibition of maize HD2 at 5 uM using [3H]acetate-labelled histone as substrate by liquid scintillation counting method relative to control
Histone deacetylase 11 = target: T2, Histone deacetylase 11 (Homo sapiens, UniProt Q96DB2); test: Inhibition of human HDAC11 using fluorogenic HDAC substrate
T2 sequence (Q96DB2 whole entry): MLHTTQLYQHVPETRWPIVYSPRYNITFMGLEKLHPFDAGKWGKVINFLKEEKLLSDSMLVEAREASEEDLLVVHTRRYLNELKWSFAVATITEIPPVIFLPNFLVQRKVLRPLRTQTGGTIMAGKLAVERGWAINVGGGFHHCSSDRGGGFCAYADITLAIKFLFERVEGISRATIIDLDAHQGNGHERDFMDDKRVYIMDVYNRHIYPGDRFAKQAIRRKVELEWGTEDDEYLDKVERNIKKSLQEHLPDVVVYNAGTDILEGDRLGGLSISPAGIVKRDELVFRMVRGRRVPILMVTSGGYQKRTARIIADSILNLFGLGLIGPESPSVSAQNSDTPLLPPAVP

Histone deacetylase 8 = target: T3, Histone deacetylase 8 (Homo sapiens, UniProt Q9BY41); test: Inhibition of human HDAC8 using fluorogenic HDAC substrate
T3 sequence (Q9BY41 whole entry): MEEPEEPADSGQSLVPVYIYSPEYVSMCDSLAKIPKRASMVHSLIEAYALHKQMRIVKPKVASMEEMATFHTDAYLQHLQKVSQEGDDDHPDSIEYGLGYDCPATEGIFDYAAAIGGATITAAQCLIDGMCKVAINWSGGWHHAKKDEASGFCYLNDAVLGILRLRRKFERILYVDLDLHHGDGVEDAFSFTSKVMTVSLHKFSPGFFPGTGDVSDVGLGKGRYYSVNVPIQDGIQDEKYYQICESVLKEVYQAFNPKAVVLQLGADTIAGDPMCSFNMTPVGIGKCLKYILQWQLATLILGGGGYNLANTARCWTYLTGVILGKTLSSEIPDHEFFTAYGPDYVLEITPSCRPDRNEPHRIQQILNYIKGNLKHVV

[2] = target: T4, Polyamine deacetylase HDAC10 (Homo sapiens, UniProt Q969S8); test: Inhibition of human HDAC10 using fluorogenic HDAC substrate
T4 sequence (Q969S8 whole entry): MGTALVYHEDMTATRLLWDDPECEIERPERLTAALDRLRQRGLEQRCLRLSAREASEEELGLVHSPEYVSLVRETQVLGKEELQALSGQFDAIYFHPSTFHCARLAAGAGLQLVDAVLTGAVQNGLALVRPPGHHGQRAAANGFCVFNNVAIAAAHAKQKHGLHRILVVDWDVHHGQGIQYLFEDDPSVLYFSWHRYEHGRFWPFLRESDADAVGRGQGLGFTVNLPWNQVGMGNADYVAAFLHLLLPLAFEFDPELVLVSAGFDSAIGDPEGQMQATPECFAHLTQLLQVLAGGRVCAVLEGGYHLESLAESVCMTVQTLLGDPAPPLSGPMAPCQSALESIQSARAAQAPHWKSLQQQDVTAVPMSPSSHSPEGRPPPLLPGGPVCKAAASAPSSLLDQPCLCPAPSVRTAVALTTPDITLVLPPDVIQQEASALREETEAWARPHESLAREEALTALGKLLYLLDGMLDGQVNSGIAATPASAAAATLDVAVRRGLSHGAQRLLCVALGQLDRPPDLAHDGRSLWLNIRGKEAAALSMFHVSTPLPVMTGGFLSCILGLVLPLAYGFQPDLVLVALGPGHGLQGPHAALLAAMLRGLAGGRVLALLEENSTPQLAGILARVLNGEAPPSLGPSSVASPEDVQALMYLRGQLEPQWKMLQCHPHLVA

[3] = target: T5, Protein deacetylase HDAC6 (Homo sapiens, UniProt Q9UBN7); test: Inhibition of human HDAC6 using fluorogenic HDAC substrate
T5 sequence (Q9UBN7 whole entry): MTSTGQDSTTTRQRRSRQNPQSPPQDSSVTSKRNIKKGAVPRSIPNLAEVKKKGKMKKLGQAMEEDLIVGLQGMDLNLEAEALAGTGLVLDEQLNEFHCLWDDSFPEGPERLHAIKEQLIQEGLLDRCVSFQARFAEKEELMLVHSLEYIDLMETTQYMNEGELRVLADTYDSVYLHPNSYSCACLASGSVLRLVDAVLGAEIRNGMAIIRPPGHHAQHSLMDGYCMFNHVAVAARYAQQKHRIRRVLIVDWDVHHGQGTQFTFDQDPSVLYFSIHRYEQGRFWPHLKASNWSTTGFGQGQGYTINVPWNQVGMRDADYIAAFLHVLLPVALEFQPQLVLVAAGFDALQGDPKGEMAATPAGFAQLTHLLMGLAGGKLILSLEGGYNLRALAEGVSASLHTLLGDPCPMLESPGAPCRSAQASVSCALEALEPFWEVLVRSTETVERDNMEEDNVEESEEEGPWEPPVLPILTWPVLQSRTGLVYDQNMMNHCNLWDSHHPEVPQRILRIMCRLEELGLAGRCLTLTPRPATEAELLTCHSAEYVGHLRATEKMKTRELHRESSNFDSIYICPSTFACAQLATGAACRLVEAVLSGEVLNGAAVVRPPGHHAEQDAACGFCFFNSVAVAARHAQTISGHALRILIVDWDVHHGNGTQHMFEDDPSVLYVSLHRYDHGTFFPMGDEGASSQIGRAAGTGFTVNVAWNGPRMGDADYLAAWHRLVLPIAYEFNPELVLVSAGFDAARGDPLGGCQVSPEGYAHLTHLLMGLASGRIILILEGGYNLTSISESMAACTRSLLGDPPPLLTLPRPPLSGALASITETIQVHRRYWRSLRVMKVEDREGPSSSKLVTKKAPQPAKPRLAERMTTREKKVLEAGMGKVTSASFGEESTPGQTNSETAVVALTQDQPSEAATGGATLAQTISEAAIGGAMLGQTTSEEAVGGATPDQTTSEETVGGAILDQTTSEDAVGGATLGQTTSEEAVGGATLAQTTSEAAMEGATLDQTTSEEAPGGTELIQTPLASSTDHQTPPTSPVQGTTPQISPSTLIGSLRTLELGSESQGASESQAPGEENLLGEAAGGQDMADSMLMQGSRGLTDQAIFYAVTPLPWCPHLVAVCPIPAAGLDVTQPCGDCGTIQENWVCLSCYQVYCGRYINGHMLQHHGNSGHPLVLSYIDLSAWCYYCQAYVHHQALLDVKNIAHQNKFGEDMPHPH

Histone deacetylase 5 = Histone deacetylase 5 (Homo sapiens, UniProt Q9UQL6); test: Inhibition of human HDAC5 using fluorogenic HDAC substrate
Sequence of Histone deacetylase 5 (Q9UQL6 whole entry): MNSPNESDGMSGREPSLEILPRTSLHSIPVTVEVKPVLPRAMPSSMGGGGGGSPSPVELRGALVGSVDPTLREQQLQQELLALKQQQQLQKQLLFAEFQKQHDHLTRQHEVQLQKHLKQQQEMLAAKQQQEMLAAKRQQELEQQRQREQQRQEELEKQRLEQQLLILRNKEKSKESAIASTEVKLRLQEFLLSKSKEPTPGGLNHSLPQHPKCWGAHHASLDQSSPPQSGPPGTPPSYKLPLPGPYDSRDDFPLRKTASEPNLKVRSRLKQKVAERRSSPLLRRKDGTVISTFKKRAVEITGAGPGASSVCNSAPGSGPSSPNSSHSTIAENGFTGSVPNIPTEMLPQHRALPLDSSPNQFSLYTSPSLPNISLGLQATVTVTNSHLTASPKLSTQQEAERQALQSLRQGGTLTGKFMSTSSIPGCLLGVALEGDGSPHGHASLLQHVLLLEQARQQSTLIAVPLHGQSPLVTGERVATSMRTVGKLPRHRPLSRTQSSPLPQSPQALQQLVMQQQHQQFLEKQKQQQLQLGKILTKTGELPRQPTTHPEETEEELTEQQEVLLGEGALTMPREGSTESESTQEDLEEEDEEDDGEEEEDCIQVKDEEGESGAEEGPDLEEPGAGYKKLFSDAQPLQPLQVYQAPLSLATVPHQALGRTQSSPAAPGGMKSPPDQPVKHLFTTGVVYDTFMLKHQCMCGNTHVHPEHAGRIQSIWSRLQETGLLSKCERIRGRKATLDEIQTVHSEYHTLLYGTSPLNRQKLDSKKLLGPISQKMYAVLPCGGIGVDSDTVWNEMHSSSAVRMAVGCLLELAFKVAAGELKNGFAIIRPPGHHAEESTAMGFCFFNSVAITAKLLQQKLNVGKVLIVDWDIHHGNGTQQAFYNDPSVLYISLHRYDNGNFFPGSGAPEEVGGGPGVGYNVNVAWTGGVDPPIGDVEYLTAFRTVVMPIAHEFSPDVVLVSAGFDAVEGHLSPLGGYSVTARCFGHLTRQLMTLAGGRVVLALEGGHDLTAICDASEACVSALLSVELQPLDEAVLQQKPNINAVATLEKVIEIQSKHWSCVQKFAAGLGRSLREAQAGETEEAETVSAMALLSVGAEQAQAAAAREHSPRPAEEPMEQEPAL

Histone deacetylase 1 [4] = target: T1, Histone deacetylase 1; test: Inhibition of human HDAC1 using fluorogenic HDAC substrate
Histone deacetylase 2 = Histone deacetylase 2 (Homo sapiens, UniProt Q92769); test: Inhibition of human HDAC2 using fluorogenic HDAC substrate
Sequence of Histone deacetylase 2 (Q92769 whole entry): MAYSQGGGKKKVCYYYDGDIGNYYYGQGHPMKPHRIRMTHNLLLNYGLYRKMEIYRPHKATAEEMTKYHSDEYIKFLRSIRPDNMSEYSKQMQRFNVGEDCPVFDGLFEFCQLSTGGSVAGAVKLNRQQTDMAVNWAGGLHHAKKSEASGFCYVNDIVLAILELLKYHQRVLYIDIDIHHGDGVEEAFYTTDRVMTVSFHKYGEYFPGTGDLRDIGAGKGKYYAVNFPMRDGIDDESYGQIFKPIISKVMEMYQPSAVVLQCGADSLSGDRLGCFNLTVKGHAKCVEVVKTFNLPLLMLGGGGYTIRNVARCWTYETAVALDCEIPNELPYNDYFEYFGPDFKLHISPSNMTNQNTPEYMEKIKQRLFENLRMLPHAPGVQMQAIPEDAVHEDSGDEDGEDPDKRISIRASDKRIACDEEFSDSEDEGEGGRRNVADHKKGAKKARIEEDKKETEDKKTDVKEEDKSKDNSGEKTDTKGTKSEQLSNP

Histone deacetylase 9 = Histone deacetylase 9 (Homo sapiens, UniProt Q9UKV0); test: Inhibition of human HDAC9 using fluorogenic HDAC substrate
Sequence of Histone deacetylase 9 (Q9UKV0 whole entry): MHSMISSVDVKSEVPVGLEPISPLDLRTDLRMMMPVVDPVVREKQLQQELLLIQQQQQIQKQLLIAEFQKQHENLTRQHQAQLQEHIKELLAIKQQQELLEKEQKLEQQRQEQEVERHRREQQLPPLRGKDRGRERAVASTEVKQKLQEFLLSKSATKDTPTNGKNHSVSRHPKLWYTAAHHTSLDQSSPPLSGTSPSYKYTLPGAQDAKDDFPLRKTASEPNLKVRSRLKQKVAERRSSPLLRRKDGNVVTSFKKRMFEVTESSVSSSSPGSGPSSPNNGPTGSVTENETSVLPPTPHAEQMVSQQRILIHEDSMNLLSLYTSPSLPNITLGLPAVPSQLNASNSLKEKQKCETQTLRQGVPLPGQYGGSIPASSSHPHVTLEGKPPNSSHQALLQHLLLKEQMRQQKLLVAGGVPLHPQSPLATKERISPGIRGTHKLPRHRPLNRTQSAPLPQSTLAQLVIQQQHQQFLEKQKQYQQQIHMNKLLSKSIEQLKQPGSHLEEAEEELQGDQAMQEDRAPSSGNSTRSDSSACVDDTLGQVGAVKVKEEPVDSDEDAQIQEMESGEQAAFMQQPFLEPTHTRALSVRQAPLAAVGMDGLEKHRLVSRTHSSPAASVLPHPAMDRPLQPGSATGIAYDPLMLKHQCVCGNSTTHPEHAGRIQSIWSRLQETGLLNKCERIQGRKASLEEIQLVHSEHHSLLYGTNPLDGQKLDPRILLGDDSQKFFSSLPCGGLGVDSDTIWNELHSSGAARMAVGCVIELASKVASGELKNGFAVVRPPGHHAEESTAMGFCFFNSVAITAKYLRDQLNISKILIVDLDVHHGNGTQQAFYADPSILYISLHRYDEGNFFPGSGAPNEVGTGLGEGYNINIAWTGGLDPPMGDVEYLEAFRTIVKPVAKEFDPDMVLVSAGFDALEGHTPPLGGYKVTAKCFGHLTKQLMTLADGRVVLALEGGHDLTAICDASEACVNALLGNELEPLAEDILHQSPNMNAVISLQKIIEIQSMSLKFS

Histone deacetylase 3 = Histone deacetylase 3 (Homo sapiens, UniProt O15379); test: Inhibition of human HDAC3 using fluorogenic HDAC substrate
Sequence of Histone deacetylase 3 (O15379 whole entry): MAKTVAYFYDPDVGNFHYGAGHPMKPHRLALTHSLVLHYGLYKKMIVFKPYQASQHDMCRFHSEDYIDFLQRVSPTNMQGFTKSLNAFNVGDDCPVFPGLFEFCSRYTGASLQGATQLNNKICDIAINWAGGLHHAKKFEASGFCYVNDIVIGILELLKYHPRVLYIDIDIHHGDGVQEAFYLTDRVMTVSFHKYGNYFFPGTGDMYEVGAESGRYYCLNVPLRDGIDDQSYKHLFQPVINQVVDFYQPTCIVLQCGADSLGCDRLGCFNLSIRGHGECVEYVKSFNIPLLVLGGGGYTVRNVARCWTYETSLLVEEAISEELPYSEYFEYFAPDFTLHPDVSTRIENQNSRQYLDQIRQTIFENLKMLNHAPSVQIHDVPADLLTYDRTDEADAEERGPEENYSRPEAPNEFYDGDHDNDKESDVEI

Histone deacetylase 4 = Histone deacetylase 4 (Homo sapiens, UniProt P56524); test: Inhibition of human HDAC4 using fluorogenic HDAC substrate
Sequence of Histone deacetylase 4 (P56524 whole entry): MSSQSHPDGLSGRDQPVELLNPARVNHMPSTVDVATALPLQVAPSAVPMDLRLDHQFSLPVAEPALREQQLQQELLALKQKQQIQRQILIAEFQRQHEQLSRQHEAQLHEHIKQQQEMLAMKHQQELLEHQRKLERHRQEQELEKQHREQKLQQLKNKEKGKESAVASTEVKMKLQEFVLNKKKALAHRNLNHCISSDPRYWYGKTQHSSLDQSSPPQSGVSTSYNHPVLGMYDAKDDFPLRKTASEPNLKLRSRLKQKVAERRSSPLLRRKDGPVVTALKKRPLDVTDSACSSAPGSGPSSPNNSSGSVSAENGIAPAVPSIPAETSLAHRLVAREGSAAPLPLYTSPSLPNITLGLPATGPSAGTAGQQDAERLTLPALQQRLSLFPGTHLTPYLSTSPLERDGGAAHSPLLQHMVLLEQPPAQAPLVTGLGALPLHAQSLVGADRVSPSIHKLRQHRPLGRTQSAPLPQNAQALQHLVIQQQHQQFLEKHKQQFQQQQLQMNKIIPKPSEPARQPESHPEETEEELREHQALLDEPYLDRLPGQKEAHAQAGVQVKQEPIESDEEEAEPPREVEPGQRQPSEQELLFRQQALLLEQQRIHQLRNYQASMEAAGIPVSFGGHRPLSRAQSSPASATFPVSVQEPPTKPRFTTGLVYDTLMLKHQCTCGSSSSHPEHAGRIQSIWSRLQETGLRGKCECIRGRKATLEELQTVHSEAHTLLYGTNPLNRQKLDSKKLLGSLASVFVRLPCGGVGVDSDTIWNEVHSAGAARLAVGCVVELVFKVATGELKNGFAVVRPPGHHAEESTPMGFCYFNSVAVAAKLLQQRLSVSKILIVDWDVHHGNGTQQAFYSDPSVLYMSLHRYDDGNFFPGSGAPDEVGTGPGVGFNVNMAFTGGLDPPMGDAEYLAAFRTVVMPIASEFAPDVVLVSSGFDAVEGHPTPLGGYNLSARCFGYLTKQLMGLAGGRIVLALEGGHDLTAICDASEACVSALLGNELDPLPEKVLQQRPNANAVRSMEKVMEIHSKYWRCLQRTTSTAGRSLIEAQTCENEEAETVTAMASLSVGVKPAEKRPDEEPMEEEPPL

Histone deacetylase 1 [5] = target: T1, Histone deacetylase 1; test: Inhibition of GST-tagged HDAC1 (unknown origin) expressed in insect cells using poly (Glu, Tyr) 4:1 as substrate measured after 15 mins in presence of [gamma-33P]ATP by Topcount method
[6] = target: T5, Protein deacetylase HDAC6; test: Inhibition of recombinant full-length human HDAC6 expressed in baculovirus expression system using FAM-RHKK(Ac)-H2 as substrate measured by electrophoretic mobility shift assay

IC50 (Histone deacetylase 1 [1]): 50 nM
Compound: O=C(CCCCCCOc1ccccc1N1C(=O)CSC1c1cccc(Br)c1)NO (configuration not stated)

inhibition (Zea mays): 45%
Compound: Cn1cc(C(=O)c2ccccc2)cc1CCC(=O)NO

IC50 (Histone deacetylase 11): 820 nM | IC50 (Histone deacetylase 8): 2000 nM | IC50 [2]: 9.4 µM | IC50 [3]: 11 nM | IC50 (Histone deacetylase 5): 22 µM | IC50 (Histone deacetylase 1 [4]): 8.8 µM | IC50 (Histone deacetylase 2): 16 µM | IC50 (Histone deacetylase 9): > 30 µM | IC50 (Histone deacetylase 3): 18 µM
Compound: O=C(NO)c1ccc(CN2c3cc(C(F)(F)F)ccc3CCC[C@@H]3CCCC[C@H]32)cc1

IC50 (Histone deacetylase 1 [1]): 350 nM
Compound: COc1ccccc1N1C(=O)CSC1c1cccc(NC(=O)CCC(=O)NO)c1 (configuration not stated)

IC50 (Histone deacetylase 11): 1200 nM | IC50 (Histone deacetylase 8): 6700 nM | IC50 [2]: > 30 µM | IC50 (Histone deacetylase 4): > 30 µM | IC50 [3]: 33 nM | IC50 (Histone deacetylase 5): > 30 µM | IC50 (Histone deacetylase 1 [4]): > 30 µM | IC50 (Histone deacetylase 9): > 30 µM | IC50 (Histone deacetylase 3): > 30 µM
Compound: O=C(NO)c1ccc(CN2c3ccccc3C[C@@H]3CCCCC[C@H]32)cc1

IC50 (Histone deacetylase 1 [1]): 73 nM
Compound: O=C(CCCOc1ccccc1N1C(=O)CSC1c1ccc(Br)s1)NO (configuration not stated)

IC50 (Histone deacetylase 1 [5]): 6 nM
Compound: Cc1[nH]c2ccccc2c1C1CCCN(Cc2ccc(/C=C/C(=O)NO)cc2)C1 (configuration not stated)

IC50 [6]: 100 to 500 nM
Compound: O=C(NO)c1ccc2c(c1)CC1(CC2)CCN(Cc2ccccc2OC(F)(F)F)C1=O (configuration not stated)

IC50 (Histone deacetylase 1 [1]): 37 nM
Compound: COc1ccccc1N1C(=O)CSC1c1cccc(C(=O)NCCCCCC(=O)NO)c1 (configuration not stated)

IC50 [6]: ≤ 100 nM
Compound: COc1ccc(CN2CCC3(CCc4ccc(C(=O)NO)cc4C3)C2=O)cc1 (configuration not stated)

IC50 [2]: 21 µM | IC50 (Histone deacetylase 5): 1.8 µM | IC50 (Histone deacetylase 9): 0.8 µM | IC50 (Histone deacetylase 3): 23 µM
Compound: O=C(NO)c1ccc(Cn2c3c(c4cc(F)ccc42)CSCC3)cc1

IC50 (Histone deacetylase 1 [5]): 0.8 nM
Compound: CCc1n[nH]c(CC)c1CCN1CCCC1c1ccc(/C=C/C(=O)NO)cc1 (configuration not stated)

IC50 (Histone deacetylase 8): 900 nM | IC50 [2]: 5.9 µM | IC50 (Histone deacetylase 5): 0.5 µM | IC50 (Histone deacetylase 2): 29 µM | IC50 (Histone deacetylase 9): 0.5 µM | IC50 (Histone deacetylase 3): 26 µM
Compound: O=C(NO)c1ccc(Cn2c3c(c4cc(F)ccc42)CS(=O)(=O)CC3)cc1

IC50 (Histone deacetylase 1 [1]): 29 nM
Compound: O=C(CCCCCC(=O)Nc1ccccc1N1C(=O)CSC1c1cccc(Br)c1)NO (configuration not stated)

IC50 (Histone deacetylase 1 [5]): 0.6 nM
Compound: Cc1nn2ccccc2c1CCN1CCCC1c1ccc(/C=C/C(=O)NO)cc1 (configuration not stated)

IC50 (Histone deacetylase 11): 2400 nM | IC50 (Histone deacetylase 8): 1100 nM | IC50 [2]: 10 µM | IC50 (Histone deacetylase 4): > 30 µM | IC50 [3]: 8 nM | IC50 (Histone deacetylase 5): 9.1 µM | IC50 (Histone deacetylase 1 [4]): 8.1 µM | IC50 (Histone deacetylase 2): 24 µM | IC50 (Histone deacetylase 9): 13 µM | IC50 (Histone deacetylase 3): 24 µM
Compound: O=C(NO)c1ccc(CN2c3ccccc3CCC[C@@H]3CCCC[C@H]32)cc1

inhibition (Zea mays): 0.2%
Compound: Cn1cc(C(=O)c2ccccc2)cc1/C=C/C(=O)NN

IC50 (Histone deacetylase 1 [1]): 260 nM
Compound: O=C(CCCCCOc1ccccc1N1C(=O)CSC1c1cccc(Br)c1)NO (configuration not stated)

IC50 [6]: 100 to 500 nM
Compound: O=C(NO)c1ccc2c(c1)CC1(CC2)CCN(Cc2cc(Cl)ccc2Cl)C1=O (configuration not stated)
